Consider one substance from US6355619B1, “Peptide tumor cell growth inhibitors” (Board of Regents, The University of Texas System, priority 1996, dated 2002).

Assay [1] has as its target T1, MIP2β binding to human neutrophils (Homo sapiens, UniProt P25025).
T1 construct: endogenous in cells; host or cells: human neutrophils
The assay is described as follows: Binding of radioiodinated MIP2β to human neutrophils. As to conditions: 1 nM MIP2β. Here is the method: FIG. 10. Ac-RRWWCX (SEQ ID NO:23) Inhibits Binding of GRO and MIP2β to human neutrophils. Radioiodinated MIP2β and GRO/MGSA were mixed with various concentration of Ac-RRWWCR-NH2 and incubated at room temperature for 15 min. Neutrophil suspension (1×10^6 cells in 160 μl PBS containing 0.1% BSA) was added to 40 μl of the mixture and incubated for 90 min on ice. The radioactivity bound to the cells was separated from free radioactivity by centrifugation through an oil layer. The % binding inhibition was calculated as follows: [formula]
MIP2β and GRO/MGSA were radioiodinated using Bolten Hunter reagent. The radioiodinated components were mixed with various concentration of the Ac-RRWWCX-NH2 (SEQ ID NO:23) peptide and incubated at room temperature for 15 min. Neutrophil suspension (1×10^6 cells in 160 μl PBS containing 0.1% BSA) was added to 40 μl of the mixture and incubated for 90 min on ice. The radioactivity bound to the cells was separated from free radioactivity by centrifugation through an oil layer. The bound radioactivity is an indication of bound CXC intercrine peptide. The % binding inhibition in the presence of Ac-RRWWCX-NH2 (SEQ ID NO:23) was calculated as follows: [formula]
where B is bound radioactivity in the presence of the peptide, T is bound radioactivity in the absence of the peptide, and NSP is bound radioactivity in the presence of excess nonlabeled ligand.

In assay [2] the test system is fMLP-induced neutrophil chemotaxis. Description: Neutrophil chemotaxis stimulated by fMLP. The format is cell-based, human. The note with it: 10 nM fMLP. How it is done:
FIG. 7. The Effect of Ac-RRWWCR-NH2 (SEQ ID NO:1) on Neutrophil Chemotaxis. Chemotaxis was performed in the presence of increasing concentration of Ac-RRWWCR-NH2 (SEQ ID NO:1) in both upper and lower chamber. Stimulants added to lower chamber were 10 nM IL-8 (●), 10 nM fMLP (▪), or media alone (◯) as control. Analysis of variance was used for multiple comparison.
Chemotaxis was performed using the leading front method as described by Zigmond and Hirsh (1973). IL-8 or controls were placed in the lower well of a Boyden chamber. A five micron pore size, 100 μm. thick cellulose nitrate filter (Sartorius Filter,. Inc., San Francisco, Calif.) was placed on the surface and the chamber was then assembled. A 200 μl aliquot of the neutrophil preparation (1×10^6 cells/ml) in RPMI-1640 media containing 1% BSA was added to the top of the filter and incubated at 37° C. for 30 min. The filter was then fixed, stained and mounted on a glass microscope slide. The leading front was determined by the position of the leading two cells. The distance that the leading two cells had moved through the filter was measured for six fields on each filter. The measurements were made with four filters for each set of conditions.

Assay [3] relates to Hep G2 liver cancer cells. Description: Cell growth assay, Hep G2. As to conditions: 72 hr. The format is cell-based. Here is the method:
FIG. 15C. The effect of Antileukinate on the growth of melanoma cells. Melanoma cell lines and a control liver cancer cell line (2×10^4 cells/well) in 500 μl were cultured in a 24 well tissue culture plate in the presence of various concentrations of Antileukinate for 3 d. The culture media were changed to fresh media containing the same concentration of Antileukinate every 24 hr during the incubation period. After incubation, the cells were collected and the cell number was counted using a hemocytometer. Liver cancer cell line, Hep G2. Analysis of variance was used for multiple comparison.
The cell lines (2×10^4 cells/well) in 500 μl cell culture medium were grown in 24 well tissue culture plates. After the cells adhered to the plate, the supernatants were aspirated and 500 μl of media containing various concentrations of Antileukinate were added to the wells. The cells were cultured for period indicated in the text. The culture media were changed to fresh media every 24 hr. After incubation, the cells were detached with trypsin-EDTA solution (Life Technologies Inc., Gaithersburg, Md., containing 0.05% of trypsin and 0.53 mM of EDTA in Hanks Balanced Salt Solution without Ca^2+ and Mg^2+) and the cell number was counted using a hemocytometer.

For assay [4], the system named is NCI-H292 (squamous cell carcinoma of lung). Description: Growth of NCI-H292, cell count. The format is cell-based. As to conditions: NCI-H292, 7 days, media replaced every 24 hour. How it is done:
(§1) FIG. 19. The effect of Antileukinate on growth of NCI-H292 (squamous cell carcinoma of lung). NCI-H292 cells were plated at a density of 5×10^3 cells in 24-well plate with growth medium. After the cells adhered to the plate, supernatants were aspirated and culture media containing various concentrations of Antileukinate were added to the wells. The media was replaced every 24 hour and the cells were cultured for 7 days. After incubation, cells were detatched with trypsin-EDTA and the cell number was counted using a hemocytometer. Cell number was decreased in a dose-dependent manner and there are significant differences from control at concentrations greater than, or equal to 50 μM of Antileukinate (p<0.05).

The subject of assay [5] is A549 (adenocarcinoma of lung). The assay is described as follows: Growth of A549, cell count. The format is cell-based. As to conditions: A549, 7 days, media replaced every 24 hours. Here is the method:
as §1, with “20” for “19.”, “A549 (adenocarcinoma” for “NCI-H292 (squamous cell carcinoma”, “A549” for “NCI-H292”, “hours” for “hour”

Assay [6] concerns SP2/o mouse myeloma cell lines. Description: Growth of SP2/o myeloma cells stimulated by murine interleukin-6. The format is cell-based.
Assay [7] relates to adenocarcinoma from breast tissue MCF-7. The assay is described as follows: Tumor cell growth, MCF-7. It counts as cell-based.

T1 sequence (P25025 whole entry): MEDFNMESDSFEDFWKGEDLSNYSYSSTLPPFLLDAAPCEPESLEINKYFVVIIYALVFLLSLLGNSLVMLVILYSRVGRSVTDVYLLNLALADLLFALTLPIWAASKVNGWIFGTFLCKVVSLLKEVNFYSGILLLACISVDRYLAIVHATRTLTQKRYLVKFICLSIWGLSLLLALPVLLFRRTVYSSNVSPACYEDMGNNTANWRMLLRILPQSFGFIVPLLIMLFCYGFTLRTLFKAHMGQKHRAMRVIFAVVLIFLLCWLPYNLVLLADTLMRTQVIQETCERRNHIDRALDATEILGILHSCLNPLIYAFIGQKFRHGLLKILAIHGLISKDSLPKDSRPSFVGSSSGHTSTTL

RRWWCR [Ac-RRWWCR-NH2]: the “effect on binding of MIP2β to neutrophils” value in assay [1] (listed as Ac-RRWWCX-NH2) was “effectively suppress the binding”; in assay [1] (listed as Antileukinate), “suppressed the binding”. For the same substance, in assay [2], the “effect on chemotaxis induced by fMLP” value is recorded as “had no effect on chemotaxis”. Further, the “effect on growth of Hep G2 liver cancer cells” value in assay [3] is “did not affect the growth”. Besides, the “concentrations with significant difference in cell number from control (p<0.05)” value in assay [4] and in assay [5] was at least 50 µM throughout. The “effect on growth of SP2/o mouse myeloma cell lines” value in assay [6] is reported as “did not affect the growth”. The “effect on cell growth” value in assay [7] was “inhibits growth”.
